Measured values: patent publication US9603980B2, “Layer-by-layer stereocomplexed polymers as drug depot carriers or coatings in medical devices” (Cardinal Health Switzerland 515 GmbH, priority 2008, dated 2017)

How the values were obtained:
[1] = test system: restenosis after coronary angioplasty; assay: MVP randomized clinical trial, angiographic and clinical outcome; format: in vivo, human
Source text: In addition, the invention enables the skilled practitioner to use probucol in conjunction with other percutaneous coronary interventions such as stenting if it is deemed appropriate. The present invention concerns the IVUS substudy from the MVP restenosis trial. MVP was a double-blind placebo-controlled randomized clinical trial with four study groups. The protocol was approved by the Montreal Heart Institute institutional review board. The MVP study design, inclusion and exclusion criteria have been previously described (N Engl J Med 1997; 365-372). Briefly, patients referred for elective coronary angioplasty were evaluated at least 30 days prior to their scheduled procedure. Eligible patients were asked to provide written informed consent. Patients were eligible if they were scheduled to undergo standard balloon angioplasty on at least one native coronary artery and had at least one de novo target lesion with luminal narrowing of fifty percent or more by caliper measurements. Beginning thirty days prior to scheduled angioplasty, patients were randomly assigned to receive either probucol alone, multivitamins alone, the combination of probucol and multivitamins, or placebo. Probucol 500 mg or matched placebo was administered twice daily. The multivitamin complex, consisting of vitamin E 700 IU, vitamin C 500 mg and beta-carotene 30,000 IU, or matched placebo was also administered in one tablet twice daily. All patients received an extra dose of probucol 1000 mg and/or vitamin E 2000 IU and/or matched placebos twelve hours before angioplasty, according to randomization assignment. […] Balloon angioplasty was performed according to standard techniques. […] The sequence of contrast injections with the exact degree of angulation was recorded and used for every angiogram. Coronary arteriograms (pre-, post-procedure, and final follow-up) were analyzed together using the Coronary Measurement System (CMS), as previously reported. Patient follow-up included clinical evaluation, exercise treadmill testing, blood chemistry, pill count and drug level measurements, and dietary assessment and intervention. Patients were readmitted for follow-up coronary angiography at five to seven months. Patients in whom arteriography was performed for clinical reasons before the fifth month returned for repeat angiographic examination at five to seven months if no definite angiographic restenosis was present on at least one dilated site. During follow-up, patients with recurrence or exacerbation of anginal symptoms were treated with medical therapy or revascularization procedures (reangioplasty or Coronary Bypass Surgery) as clinically indicated. […]

[2] = test system: tissue hyperplasia and vascular remodeling after coronary angioplasty; assay: IVUS substudy of the MVP restenosis trial; format: in vivo, human; conditions: for Lumen area: Follow-up Post PTCA (change)
Source text: Serial intravascular ultrasound (IVUS) examinations have been performed in a consecutive series of patients involved in the MVP trial. By providing tomographic views of coronary arteries with high resolution, IVUS allows quantitative assessment of changes in arterial lumen and wall dimensions. We were therefore able in this study to determine the pathophysiology of coronary restenosis after balloon angioplasty in patients systematically undergoing follow-up IVUS examination and determine the effect of probucol on tissue hyperplasia and vascular remodeling after coronary angioplasty.
The present invention concerns the IVUS substudy from the MVP restenosis trial. MVP was a double-blind placebo-controlled randomized clinical trial with four study groups. The protocol was approved by the Montreal Heart Institute institutional review board. The MVP study design, inclusion and exclusion criteria have been previously described (N Engl J Med 1997; 365-372). Briefly, patients referred for elective coronary angioplasty were evaluated at least 30 days prior to their scheduled procedure. Eligible patients were asked to provide written informed consent. Patients were eligible if they were scheduled to undergo standard balloon angioplasty on at least one native coronary artery and had at least one de novo target lesion with luminal narrowing of fifty percent or more by caliper measurements.
Beginning thirty days prior to scheduled angioplasty, patients were randomly assigned to receive either probucol alone, multivitamins alone, the combination of probucol and multivitamins, or placebo. Probucol 500 mg or matched placebo was administered twice daily. […] The sequence of contrast injections with the exact degree of angulation was recorded and used for every angiogram. Coronary arteriograms (pre-, post-procedure, and final follow-up) were analyzed together using the Coronary Measurement System (CMS), as previously reported. […] Patients were readmitted for follow-up coronary angiography at five to seven months. […]

LDL = assay: Lag phase for LDL peroxidation ex vivo, diene conjugates after addition of copper ions; set-up: species or system human; conditions: treatment for one month; compared with vitamins alone or the combination of probucol and vitamins; preliminary results
[3] = compared to placebo, probucol given alone

CC(C)(Sc1cc(C(C)(C)C)c(O)c(C(C)(C)C)c1)Sc1cc(C(C)(C)C)c(O)c(C(C)(C)C)c1 [Probucol Alone, 4,4′-([1-methylethylidene)bis(thio)]bis-[2,6-bis(1,1-dimethylethyl)phenol]]
reduction of the need for repeat angioplasty ([1]; at 6 month, compared to placebo, probucol given alone): fifty-eight
reduction of angiographic lumen loss [1, 3]: sixty-eight
reduction of restenosis rate per segment [1, 3]: forty-seven
patients in whom restenosis still occurred ([1]; patients given probucol alone): over twenty
Lumen area ([2]; compliant patients only): −0.15 ± 1.70 mm^2
Lumen area ([2]; per segment): −0.15 ± 1.70 mm^2
increase in vessel enlargement ([2]; probucol only compared with placebo): seven hundred-thirty
protection against LDL oxidation (LDL): significantly greater protection
